Consider 14 compounds from article PMC10673250, “Exploring Alkyl Ester Salts of L-Amino Acid Derivatives of Ibuprofen: Physicochemical Characterization and Transdermal Potential” (Molecules, 2023).

Values after ≈ are worked out from the molar mass of the structure shown. Values joined by “and” are separate entries in the source; they are usually repeats but may differ in a detail not shown here. Identical values can stand only once. Counter-ions that a name gives are not always drawn. Like-named read-outs stand apart in the source and are kept apart here.

Data set [1] in a line: Partition coefficient n-octanol/water (shake-flask, HPLC). In kind it is physicochemical. The note with it: 25 °C. The method, then: For L-glutamic acid alkyl ester ibuprofenates, the partition coefficient was determined using n-octanol/water extraction. For this purpose, 10 mg of the substance, weighed with an accuracy of 0.01 mg, was mixed with 5 cm^3 of water saturated with n-octanol and 5 cm^3 of n-octanol saturated with water. The mixture was stirred vigorously at 25 °C for 3 h and then centrifuged at 7500 rpm·min^−1 at 25 °C for 10 min to separate the phases. The phases were then separated. The concentration of the compound was determined in the aqueous layer using the HPLC method (standard curve method).
The partition coefficient log P was calculated based on Equation (3):(3) logP=logcoct−logcw where: • cw and coct are the concentrations (mg·dm^−3) of the solute in the aqueous and octanol layers.
The concentration of the compound dissolved in octanol was calculated from Equation (4):(4) coct=c0−cw where: • c0 is the concentration of the compound calculated based on sample weights prepared for analysis.
The concentration of the substance in the aqueous layer was determined using the SHIMADZU Nexera-i LC-2040C 3D High Plus high-performance liquid chromatography method with a DAD/FLD detector. A mixture of 50% acetonitrile and 50% water was used as the moving fluid under isocratic conditions at a 1 cm^3·min^−1 flow rate. A Kinetex® 2.6 µm F5 100 Å column heated to 35 °C with dimensions of 150 × 4.6 mm^2 from Phenomenex was used. The spectra were recorded at a wavelength of 210 nm. The injection volume for these samples was 50 mm^3. Each measurement was performed three times, and the results were averaged. The concentration of ibuprofen and its salts was calculated from peak area measurements using the calibration curve method (Figure 8). The results were analyzed using LabSolutions/LC Solution System.

Data set [2] is described as follows: Solubility in water (saturated solutions, HPLC). In kind it is physicochemical. The note with it: water at 25 °C. The method, then:
Water solubility was determined by obtaining saturated solutions of the obtained ibuprofenates. For this purpose, the appropriate amount of ibuprofen salt was weighed in a vial, poured with deionized water, and stirred vigorously on a magnetic stirrer at 25 °C for 24 h. After this time, the mixture was filtered using a syringe filter made of MCE (mixed cellulose esters) with a pore diameter 0.45 µm. Then, the filtrate was diluted one hundred times with acetonitrile: water solution (1:1). The concentration of the compound was determined by the HPLC method described in Section 3.2.9.

Data set [3] in a line: Accumulation in the skin after the permeation test, in vitro. The note with it: after 24 h permeation; for accumulation in pig skin: mean ± SD, n = 3. In kind it is in vitro ADME, pig. The method, then:
After completing the permeation test, the skin was removed from the Franz chamber, then washed with 0.5% sodium lauryl sulfate solution and dried with a paper towel. After being thoroughly air-dried, the leather was cut into pieces and extracted with 2 cm^3 of methanol for 24 h at 4 °C. Then, the samples were homogenized using a homogenizer (IKA®T18 digital ULTRA TURRAX, Staufen, Germany) for 3 min and centrifuged at 3500 rpm·min^−1 for 5 min. After centrifugation, the solution was analyzed by HPLC. The accumulation of IBU and its salts in pig skin was calculated by dividing the amount of substance remaining in the samples by the weight of the skin sample and it was expressed as the weight of IBU per gram of skin (µg IBU·g^−1).

The conditions of data set [4]: pig skin, concentration 0.01 g·cm^−3; cited from earlier work.
Data set [5] is described as follows: Permeability of the active substance through pig skin, Franz diffusion chambers, in vitro. The note with it: for Jss, steady-state flux: 1% IBU in 70% ethanol, 37 °C; for Jss, steady-state flux / Q%24h, the percentage of the applied dose / LT, lag time / CMP (cumulative permeation mass): n = 3; for Q%24h, the percentage of the applied dose / CMP (cumulative permeation mass): 24 h.
Experimental: Tests for the penetration of the active substance through pig skin were performed using Franz diffusion chambers (Phoenix DB-6, ABL&E-JASCO, Vienna, Austria) with diffusion areas of 1 cm^2 according to the modified method [15].
Pig skin obtained from the belly was purchased from a local slaughterhouse. The outer layer, 0.5 mm thick, was then removed using a dermatome and cut into 2 cm × 2 cm pieces. Before use in the study, the skin was soaked in buffered saline (PBS) solution at pH 7.4.
Skin impedance assessment was performed using an LCR meter 4080 (Voltcraft LCR 4080, Conrad Electronic, Hirschau, Germany), which was operated in parallel mode at an alternating frequency of 120 Hz (error for kΩ values < 0.5%). The measurements were made by placing the tips of the measurement probes in the donor and acceptor chambers, separated by a skin sample. Both chambers were filled with PBS buffer pH 7.4. Skin samples with an impedance > 3 kΩ were used for testing, which corresponds to the electrical resistance of human skin [15, 18].
The acceptor chamber with a capacity of 10 cm^3 was filled with PBS solution (pH 7.4). A total of 1 cm^3 of a solution of ibuprofen or L-amino acid alkyl ester ibuprofenate with a concentration of 1% based on the active substance (ibuprofen) in 70% ethanol was placed in the acceptor chamber.
The experiment was conducted for 24 h at 37 °C. After 0.5 h, 1 h, 2 h, 3 h, 4 h, 5 h, 8 h, and 24 h from the start of the permeation experiment, 0.5 cm^3 samples of the acceptor fluid were taken, respectively, and refilled with fresh PBS solution. The content of ibuprofen or its salts in the acceptor liquid was determined by HPLC. Based on this concentration, the cumulative mass expressed as ibuprofen was calculated (µg IBU·cm^−2) [3, 19, 20, 21, 22].
The constant flow coefficient (in µg IBU·cm^−2·h^−1) through the pig skin into the acceptor fluid was determined as the slope of the plot of accumulated mass in the acceptor fluid as a function of time.
Steady-state flow was estimated from the slope of the linear part of the plot of accumulated mass in the acceptor phase over time. The lag time (LT) was determined based on the x-intercept of the linear part of the graph of accumulated mass in the acceptor phase over time. It was then used to calculate the permeability coefficient Kp using Equation (6):(6) Kp=Jss/C where: • C—concentration in the donor phase (µg·cm^−3).
The diffusion coefficient (D) was calculated based on Equation (7):(7) D=I^2/6·LT where: • I—diffusion path, skin thickness (mm).
The skin partition coefficient (Km) was calculated based on Equation (8):(8) Km=Kp·I/D

The conditions of data set [6]: administered on an empty stomach, 71 healthy adults; cited from earlier work.
A short description of data set [7]: Thermogravimetric analysis (thermal stability). Format: physicochemical. How it is done:
Thermal stability was assessed using thermogravimetric studies performed on a […]1 Libra thermomicrobalance (Selb, Germany). The test was carried out in an oxidizing environment, with the flow of nitrogen (protective gas): 10 cm^3·min^-1, air: 25 cm^3·min^-1 in the temperature range from 25 to 1000 °C. Samples weighing approximately 5 mg were heated at 10 °C·min^-1. The decomposition onset temperature (Tonset) was calculated using the intersection of the tangents of the TG curve. The fastest decomposition temperatures (Tmax) were calculated using the first TG curve (DTG curve) derivative.

[8] abbreviates: in terms of the active substance (ibuprofen).
[9] abbreviates: TG, oxidizing environment, 10 °C·min^−1.

Take `CC(C)Cc1ccc(C(C)C(=O)O)cc1` (racemic) [IBU, (RS)-2-[4-(2-methylpropyl)phenyl]propionic acid, reference compound]: in data set [1], the logP worked out at 3.37. In addition, the concentration in solution in data set [2] (deionized water, as compound) (solubility at 24 h) was 75 ± 1 µg/mL (≈ 364 µM). For the same compound, the “Solubility in Water” value in data set [2] (setting [8]) was determined as 0.075 ± 0.001 g IBU·dm^−3. Besides, the “accumulation in pig skin” value in data set [3] is recorded as 1057.468 ± 200.589 µg IBU·g^−1 pig skin. Also, the skin penetration rate in data set [4] is 6%. Also, in data set [5], the “Jss, steady-state flux” value is listed as 26.539 ± 0.320 µg IBU·cm^−2·h^−1; the “Q%24h, the percentage of the applied dose” value (from here on “Q%24h, the percentage”) amounted to 0.302 ± 0.038%; the “LT, lag time” value is 0.153 ± 0.029 h. Also, the “D·10^4, diffusion coefficient” value in data set [5] (n = 3, value is D·10^4) was 27.926 ± 5.802 cm^2·h^−1.

Turning to `CC(C)Cc1ccc(C(C)C(=O)[O-])cc1.[Na+]` (stereo not drawn) [IBUNa], in data set [6], the “Cmax higher compared to rac-IBU” value is recorded as “approximately 30%”.

As to `CCCCOC(=O)CCC(N)C(=O)OCCCC` (stereo not drawn) [[Glu(OBu)2][HCl]], the “Tonset, the onset temperature of the thermal degradation” value (from here on “Tonset, the onset temperature”) in data set [7] (setting [9]) was 172.8 °C.

For the compound `CC(C)Cc1ccc(C(C)C(=O)O)cc1.CCCCOC(=O)C(N)CCC(=O)O` (stereo not drawn) [[Glu(OBu)][IBU]], in data set [1], the “log P” value is listed as 3.000 ± 0.010. Further, the “Solubility in Water” value in data set [2] (as compound) is on record as 0.217 ± 0.007 g·dm^−3. Further, the “Solubility in Water” value in data set [2] (setting [8]) amounted to 0.109 ± 0.004 g IBU·dm^−3. In data set [3], the “accumulated mass relative to ibuprofen” value is on record as “approximately 90%” and the “accumulation in pig skin” value is reported as 931.823 ± 93.449 µg IBU·g^−1 pig skin. The “Tonset, the onset temperature” value in data set [7] came to 206.8 °C. In data set [5], the “Jss, steady-state flux” value is 32.282 ± 7.809 µg IBU·cm^−2·h^−1; the “CMP (cumulative permeation mass)” value was 0.109 ± 0.004 g IBU·dm^−3; the “Q%24h, the percentage” value worked out at 0.452 ± 0.026%; the “LT, lag time” value is on record as 0.102 ± 0.069 h.

For the compound `CCOC(=O)CCC(N)C(=O)OCC` (stereo not drawn) [[Glu(OEt)2][HCl]], the “Tonset, the onset temperature” value in data set [7] (setting [9]) was 168.3 °C.

Turning to `CC(C)Cc1ccc(C(C)C(=O)O)cc1.CCOC(=O)C(N)CCC(=O)O` (stereo not drawn) [[Glu(OEt)][IBU]], in data set [1], the log partition coefficient (log P) was 2.37 and 2.374 ± 0.001. Further, in data set [2] (as compound), the “Solubility in Water” value was determined as 0.185 ± 0.003 g·dm^−3. For the same compound, the “Solubility in Water” value in data set [2] (setting [8]) came out at 0.100 ± 0.001 g IBU·dm^−3. For the same compound, in data set [7], the “Tonset, the onset temperature” value is 194.2 °C. Besides, in data set [5], the “Jss, steady-state flux” value was 30.855 ± 6.617 µg IBU·cm^−2·h^−1; the “CMP (cumulative permeation mass)” value came to 0.100 ± 0.001 g IBU·dm^−3; the “Q%24h, the percentage” value turned out to be 0.566 ± 0.005%; the “LT, lag time” value is on record as 0.029 ± 0.050 h. Moreover, in data set [5] (after 24 h), the “permeation rate difference compared to [Glu(OPent)][IBU]” value was “approximately 0.5 μg∙h^−1”.

As to `CCCCCOC(=O)CCC(N)C(=O)OCCCCC` (stereo not drawn) [[Glu(OPent)2][HCl]], the “Tonset, the onset temperature” value in data set [7] (setting [9]) stood at 169.5 °C.

In the case of `CC(C)Cc1ccc(C(C)C(=O)O)cc1.CCCCCOC(=O)C(N)CCC(=O)O` (stereo not drawn) [[Glu(OPent)][IBU]], the log partition coefficient (log P) in data set [1] worked out at 2.459 ± 0.002. Moreover, the “Solubility in Water” value in data set [2] (as compound) is reported as 0.208 ± 0.024 g·dm^−3. Also, the “Solubility in Water” value in data set [2] (setting [8]) was 0.101 ± 0.012 g IBU·dm^−3. Moreover, the “accumulation in pig skin” value in data set [3] came to 625.895 ± 87.275 µg IBU·g^−1 pig skin. The “Tonset, the onset temperature” value in data set [7] turned out to be 206.9 °C. For the same compound, in data set [5], the “Jss, steady-state flux” value was 57.098 µg IBU·cm^−2·h^−1 and 57.098 ± 29.761 µg IBU·cm^−2·h^−1; the “CMP (cumulative permeation mass)” value was 0.101 ± 0.012 g IBU·dm^−3; the “Q%24h, the percentage” value is listed as 0.582 ± 0.047%. Besides, the “permeation rate relative to ibuprofen” value in data set [5] (within the first two hours) was “twice as high as ibuprofen”.

As to `CC(C)Cc1ccc(C(C)C(=O)O)cc1.CCCOC(=O)C(N)CCC(=O)O` (stereo not drawn) [[Glu(OPr)][IBU]], in data set [1], the “log P” value is given as 2.380 ± 0.003. Further, in data set [2] (as compound), the “Solubility in Water” value is on record as 0.230 ± 0.007 g·dm^−3. Also, the “Solubility in Water” value in data set [2] (setting [8]) was 0.120 ± 0.004 g IBU·dm^−3. Also, the “Tonset, the onset temperature” value in data set [7] is 199.7 °C. In addition, in data set [5], the “Jss, steady-state flux” value was 26.451 ± 2.253 µg IBU·cm^−2·h^−1; the “CMP (cumulative permeation mass)” value was 0.120 ± 0.004 g IBU·dm^−3; the “Q%24h, the percentage” value came out at 0.506 ± 0.008%.

On to `CC(C)OC(=O)CCC(N)C(=O)OC(C)C` (stereo not drawn) [[Glu(OiPr)2][HCl]], for which, in data set [7] (setting [9]), the “Tonset, the onset temperature” value came to 174.4 °C.

Consider `CC(C)Cc1ccc(C(C)C(=O)O)cc1.CC(C)OC(=O)C(N)CCC(=O)O` (stereo not drawn) [[Glu(OiPr)][IBU]], for which the “log P” value in data set [1] came to 2.860 ± 0.007. The “solubility relative to ibuprofen (standard)” value in data set [2] (per active mass of ibuprofen) is listed as “approximately three times higher”. The “Solubility in Water” value in data set [2] (as compound) is recorded as 0.390 ± 0.011 g·dm^−3. Moreover, the “Solubility in Water” value in data set [2] (setting [8]) was determined as 0.203 ± 0.006 g IBU·dm^−3. Further, the “Tonset, the onset temperature” value in data set [7] is 222.9 °C. In data set [5], the “Jss, steady-state flux” value is listed as 23.298 ± 3.459 µg IBU·cm^−2·h^−1 and the “Q%24h, the percentage” value was 0.373 ± 0.0175%. The “penetrated better than ibuprofen” value in data set [5] (versus ibuprofen) is listed as about 40%.

`CCCOC(=O)CCC(N)C(=O)OCCC` (stereo not drawn) [[Glu(Opr)2][HCl]]: the “Tonset, the onset temperature” value in data set [7] (setting [9]) stood at 170.5 °C.

As for `CCC(C)OC(=O)CCC(N)C(=O)OC(C)CC` (stereo not drawn) [[Glu(Osec-Bu)2][HCl]], the “Tonset, the onset temperature” value in data set [7] (setting [9]) came out at 181.5 °C.

Take `CC(C)Cc1ccc(C(C)C(=O)O)cc1.CCC(C)OC(=O)C(N)CCC(=O)O` (stereo not drawn) [[Glu(Osec-Bu)][IBU]]: in data set [1], the “log P” value was 3.191 ± 0.007. Moreover, in data set [2] (as compound), the “Solubility in Water” value amounted to 0.185 ± 0.024 g·dm^−3. Further, in data set [2] (setting [8]), the “Solubility in Water” value is listed as 0.093 ± 0.012 g IBU·dm^−3. The “Tonset, the onset temperature” value in data set [7] was 204.2 °C. Also, in data set [5], the “Jss, steady-state flux” value stood at 22.296 ± 1.398 µg IBU·cm^−2·h^−1; the “CMP (cumulative permeation mass)” value is 0.093 ± 0.012 g IBU·dm^−3; the “Q%24h, the percentage” value stood at 0.456 ± 0.048%.
